SMILES strings stand for the structures.

What is called melting point is the temperature, or range, at which the solid turns liquid. In turn, `OC1CCc2c(I)cccc21` (stereo not given) returned a melting point of 83 to 84 °C.
Then `CCOC(=O)c1cc(CN2C(=O)C3(COc4cc5c(cc43)OCO5)c3ccccc32)oc1C(F)(F)F` (stereo not given), with 162 to 164 °C; and `O=C(NCc1ccccc1Cl)c1cccnc1OCc1cccnc1`, with 91 to 93 °C; and `CCOC(=O)c1c(CN(CC)CC)nc2ccc(Cl)cc2c1-c1ccc(Cl)cc1`, with 132 to 133 °C.
The result for `CN(CCF)C(=O)c1cc2ccccc2c(-c2ccccc2I)n1` reads 142 to 143 °C; that for `COc1cc(-c2csc(C(N)=O)n2)cc(Cl)c1OC`, 178 to 180 °C.
Then `Cc1c(C(=O)O)ccc(O)c1O`, with 200 to 201 °C.
In the case of `Cc1ccc(CN2CC=C(/C=C/c3ccc(Cl)cc3)CC2)cc1`, the melting point lay in the range of 113 to 115 °C.
Then `CCOC(=O)CNC(=O)NCc1cccc2c1C(=O)N(C1CCC(=O)NC1=O)C2=O` (stereo not given), with 187 to 189 °C; and `Cc1ccc(NC(=O)Nc2ccc(Oc3cc(Cl)ncn3)cc2)cc1`, with 217 to 219 °C; and `CC(F)=C1CCC2C3CC=C4CC(O)CCC4(C)C3CCC12C` (stereo not given), with 129 to 133 °C.
Then `C=CCCC(C)(NC(c1ccccc1)c1ccccc1)P(O)O` (stereo not given), with 180 °C.
The result for `COc1ccc(C2=Cc3ccc(O)cc3OC2)cc1` reads 161 to 163 °C.
With `COc1ccc(S(=O)(=O)C2(C(=O)O)CCN(C(C)C)CC2)cc1`, the melting point came to 204 °C.
`CCOC(=O)CCc1cc(F)c(N2CCNCC2)nc1Nc1ccc(F)cc1F` displayed a melting point of 121 to 123 °C.
The result for `CC(=O)N(CCCC(=NNC(N)=S)c1ccccc1)C(C)C` reads 141 to 147 °C.
The compound `Brc1ccc2nc(-c3ccc4ccccc4c3)cn2c1` displayed a melting point of 226 to 228 °C.
Then `NS(=O)(=O)c1ccc(-c2cc(F)c(F)cc2-c2ccc(F)c(Cl)c2)cc1`, with 162 to 163 °C.
Then `O=C(NC1CCCCC1)c1ccc(F)c2c1CC(N(CCCc1c[nH]c3ccc(F)cc13)C1CCC1)CO2` (stereo not given), with 134 °C; and `CCOC(=O)c1ccc(NC(=O)C(COS(C)(=O)=O)NS(=O)(=O)c2ccc(Cl)cc2)cc1` (racemic), with 153 to 158 °C.
The result for `Cc1nc2ncnn2c2c1CCN2Cc1ccccc1` reads 170 to 172 °C.
`O=C(N1CC(CCl)c2c1ccc1ccccc21)C(F)(F)F` (stereo not given) gave a melting point of 185 °C.
The result for `CCc1c(O)n[nH]c1C` reads 232 to 234 °C.
For `CCNC(=O)c1ccc(C=C(C)c2ccc3c(c2)C(C)(C)CCO3)cc1`, the melting point fell in the range of 161 to 163 °C.
Then `O=C(/C=C/c1ccc2ccccc2c1)Nc1ccccc1-c1nnn[nH]1`, with 187 to 191 °C; and `CC1(C)CCC(C)(C)c2cc(-c3cc4ccc(C(=O)O)cc4s3)ccc21`, with 297 °C.
Then `CC(=Cc1ccccc1)c1ccc2c(c1)SCCC2(C)C`, with 67 to 69 °C.
Then `CCC(C)(CC)c1nnc(NC(=O)c2c(OC)cccc2OC)s1`, with 208 to 210 °C.
`COc1ccc(C(=O)Nc2cccnc2)cc1N`: the melting point was 193 to 196 °C.
The result for `CNc1ccc2[nH]c3cc(-c4ccccc4Cl)c4c(c3c2c1)C(=O)NC4=O` reads 182 to 184 °C; that for `Fc1ccc(C(F)(F)C(F)(F)c2ccccc2)c(Br)c1`, 47 to 48 °C.
Then `CCC(C(=O)O)(c1ccc(OCc2ccc3ccccc3n2)cc1)c1ccc(OCc2ccc3ccccc3n2)cc1`, with 83 to 92 °C; and `CC(NC(=O)c1cc(Cl)ccc1N)C1CC1` (stereo not given), with 135 °C.
The compound `CC1(C)OCC(COC(=O)Cc2cccc3c(=O)cc(C4=CCCCC4)oc23)O1` (stereo not given) gave a melting point of 104 to 105 °C.
Take `CS(=O)(=O)Cc1c(C(=O)c2cnoc2C2CC2)ccc(S(C)(=O)=O)c1Cl`: the melting point turned out to be 110 °C.
Consider `COc1ccc(C(=O)CCCCCN2CCC(CNC(=O)c3cc(Cl)c(N)cc3OC)CC2)cc1OC`, for which the melting point was 102 to 105 °C.
Then `O=c1oc2c(c(O)c1-c1ccc(F)cc1)CCCC2`, with 272 °C; and `OCC(O)c1cccc(OCc2ccc3ccccc3c2)c1` (stereo not given), with 121 to 122 °C; and `Cc1nc(-c2ccccc2)nc(-c2cccc([N+](=O)[O-])c2)c1C(=O)N1CCN(C)CC1`, with 153 to 155 °C.
The result for `C=CCN1CC(C)N(C(c2ccsc2)c2cccc(O)c2)CC1C` (stereo not given) reads 140 to 142 °C; that for `CCCCCCCCCCCCn1nnnc1CCC(=O)Nc1c(OC)cc(OC)cc1OC`, 57 to 61 °C.
Consider `NC(=O)c1c(Cl)c(-c2ccccc2)n2c1CN(C(=O)c1ccc(-c3ccccn3)s1)CC2`, for which the melting point amounted to 232 °C.
In turn, `Cc1ccc(Sc2cncc3sc(C(N)=O)cc23)c(C)c1` returned a melting point of 193 to 195 °C.
Then `CCc1c(-c2ccc(OCc3ccccc3)cc2)c2cc(COCCCN(C)C)c3cccc1n32`, with 63 to 65 °C.
Then `COc1cc(CBr)cc(OC)c1`, with 70 to 72 °C.
The result for `CCNC(=O)c1c(Br)csc1[Si](C)(C)C` reads 93 to 96 °C.
In the case of `Nc1ccc(Oc2cc(Cl)ncn2)cc1`, the melting point was in the range of 136 to 138 °C.
For the compound `CCN(CC)C(=O)Nc1ccc(-c2c[nH]c(=O)cn2)cc1`, the melting point fell in the range of 154 to 155 °C.
Then `Cc1cc(NC(=O)NC(=O)c2c(Cl)cccc2Cl)ncc1-c1ccccc1`, with 210 to 214 °C.
The result for `COCc1nc2nccnc2c(=O)n1C` reads 130 to 132 °C; that for `Cc1cccc2c(Cl)nc(Cl)nc12`, 180 to 230 °C; that for `CCC(C)NC(=O)Nc1cc(-c2c(-c3ccc(F)c(C)c3)nc3cccnn23)ccn1` (stereo not given), 196 to 197 °C.
Then `CC(C)CC(=O)Nc1cccc(-c2ccnc3c(-c4cccc5cccnc45)cnn23)c1`, with 96 to 99 °C.
Regarding `COc1cc(OC)n2sc(=NS(=O)(=O)Cc3ccccc3OC(F)F)nc2n1`, the melting point was in the range of 151 to 152 °C.
The result for `COc1ccc(N2CCN(Cc3cn4cc(Cl)ccc4n3)CC2)cc1` reads 111 to 112 °C; that for `CCC(NC(=O)c1ccc(Cl)cc1)NC(=NC#N)Nc1cccnc1` (stereo not given), 181 to 183 °C; that for `CCCC(=O)c1cc2c(=O)cc(C(=O)O)[nH]c2cc1C`, 255 to 258 °C.
In the case of `CCCCOC(=O)c1ccc(N2CCN(S(C)(=O)=O)CC2)cc1`, the melting point lay in the range of 145 to 150 °C.
The result for `O=CN(O)C(CS(=O)(=O)c1ccc(Oc2ccc(OC(F)(F)F)cc2)cc1)CS(=O)(=O)N1CCC2(CC1)OCCO2` (stereo not given) reads 178 to 179 °C; that for `CCOC(=O)C(=O)C1C(=O)c2cccc3c2C1CCC3` (stereo not given), 92 to 94 °C; that for `CC(=O)NC[C@H]1CN(c2ccc3c(c2)OCCCC3=O)C(=O)O1`, 123 to 128 °C.
The result for `CN(C)CC(=O)NCc1nc(C(=O)N(C)C)nn1-c1ccc(Cl)cc1C(=O)c1ccccc1Cl` reads 122 to 124 °C; that for `Cc1c(F)c(N2CCNCC2)c(Cl)c2c1c(=O)c(C(=O)O)cn2C1CC1`, 234 to 235 °C.
The result for `FC(F)(F)c1cccc(C(NC2=NCCO2)C(F)(F)F)c1` (stereo not given) reads 129 to 132 °C; that for `CCOc1ccccc1OCC(O)CNCCNc1cnn(C)c(=O)c1Cl` (stereo not given), 120 °C.

(Values after a melting point compilation (Tetko et al.; mined from patent text by program, amines drawn as free bases though some values may be those of a salt).)
